Patent US20240329286A1, “LIGHT ABSORPTION FILTER, OPTICAL FILTER, MANUFACTURING METHOD FOR OPTICAL FILTER, ORGANIC ELECTROLUMINESCENT DISPLAY DEVICE, INORGANIC ELECTROLUMINESCENT DISPLAY DEVICE, AND LIQUID CRYSTAL DISPLAY DEVICE” (FUJIFILM Corporation, priority 2022, published 2024)

Assay: pKaH (pKa of the conjugate acid) by titration with sodium hydroxide aqueous solution
Type: physicochemical
Conditions: water/methanol=50/50 (volume ratio), 25° C.
Excerpt: The pKa can be calculated by dropwise adding a 0.01 mol/L sodium hydroxide aqueous solution to a mixed solution of water/methanol=50/50 (in terms of volume ratio) of a measurement sample (a conjugate acid of the compound B) and reading the amount of the sodium hydroxide aqueous solution that has been dropwise added up to the half-equivalent point.
Work on `c1ccc(-c2ccnc3ccccc23)cc1` [4-Phenylquinoline] yielded a pKaH of 4.3.

Same assay, conditions: water/methanol=50/50 (volume ratio), 25° C., Table 2
For `Cc1cc(C)c2ccccc2n1` [2,4-dimethylquinoline], the “pKaH of compound B” value was 5.7. With `Cc1ccc2ccccc2n1` [2-methylquinoline] the “pKaH of compound B” value was 4.8. For `Cc1cc2ccccc2cn1` [3-methylisoquinoline], the “pKaH of compound B” value was 5.2. With `Cc1ccnc2ccccc12` [4-methylquinoline] the “pKaH of compound B” value was 5.1. In the case of `c1ccc2cnccc2c1` [Isoquinoline], the “pKaH of compound B” value is reported as 4.7. For `c1ccc2ncccc2c1` [Quinoline], the “pKaH of compound B” value was 4.2.
